Consider two molecules from patent publication US5369096A, “Glycolipid derivatives” (The Nisshin Oil Mills, Ltd., priority 1992, dated 1994).

Holding throughout (type): cell-based
Assay [1] deals with Colo 201 cancer cells adhering to vascular endothelial cells of the normal human umbilical cord. The experiment in a line: inhibition of adhesion of Colo 201 cancer cells to rhIL1β-stimulated vascular endothelial cells, liposome dispersion. To be noted: 11.8 μM equivalent; for Amount of Colo 201 cells adhered (fluorescence intensity): rhIL1β 200 U/ml, 485 nm. The protocol: A solution of 200 μg of phosphatidylcholine, 100 μg of cholesterol, 7.5 μg of dicetyl phosphate and 50 μg of a compound of the invention in a mixture of chloroform/methanol=2/1 (ca. 1 ml) was evaporated under reduced pressure to dryness followed by addition of 0.25 ml of a phosphate-buffered saline solution. The mixture was ultrasonicated (an output of 90 watts) for 5 min. and stirred (a vortex mixer) for 5 min. to form a liposome dispersion.
% Inhibition of adhesion=100-[(fluorescence intensity for rhIL1β-treated group+compound-free or a compound-containing liposome dispersion-treated group)-(fluorescence intensity for rhIL1β-untreated group)/(fluorescence intensity for rhIL1β-treated group-fluorescence intensity for rhIL1β-untreatedgroup)]×100
Vascular endothelial cells of the normal human umbilical cord grown to confluence were stimulated in 24-well plates with 200 U/ml of rhIL1β at 37° C. for 4 hours. After removal of the supernatant by suction liposome dispersions each prepared from 2→3 sialyl Le^x or a compound of the invention in an amount of 11.8 μM equivalent were added except for the rhIL1β-untreated and treated groups. The mixtures were then allowed to react at room temperature for 30 min. Subsequently, colon carcinoma cell line Colo 201 with 2',7'-bis-(carboxyethyl)-5,6-carboxyfluorescene acetoxymethyl ester fluorescent dye enclosed was added at a level of 1×10^6 cells per well followed by centrifugal operation at 100 rpm for 20 min. Each well was washed three times followed by addition of 0.5 ml of 0.5% Triton X-100 and stirring. The contents were divided into 100 μl portions in 96-well plates and measurement was made on a Baxter fluorometer at 485 nm.
4: rhIL1β-treated group+2→3 sialyl Le^x -containing liposome dispersion-treated group
5: rhIL1β-treated group+compound 5E-containing liposome dispersion-treated group (OEG)*
6: rhIL1β-treated group+compound 5A-containing liposome dispersion-treated group (2EG)
7: rhIL1β-treated group+compound 5B-containing liposome dispersion-treated group (3EG)
8: rhIL1β-treated group+compound 5C-containing liposome dispersion-treated group (4EG)
9: rhIL1β-treated group+compound 5D-containing liposome dispersion-treated group (5EG)
* OEG represents a control compound containing no CH2 CH2 O unit. The same shall apply hereinafter.
Amount adhered and % inhibition of adhesion of Colo 201 cancer cells as measured from fluorescence intensity are shown in Table 2 below.

In assay [2] the test system is HL-60 cancer cells adhering to vascular endothelial cells of the normal human umbilical cord. Put plainly: inhibition of adhesion of HL-60 cancer cells to rhIL1β-stimulated vascular endothelial cells, oily emulsion. The settings on record: 20 μg/ml equivalent; for Amount of HL-60 cancer cells adhered (fluorescence intensity): rhIL1β 200 U/ml, 485 nm/535 nm. As to the method: (§1) A mixed solution of 6 mg of egg yolk lecithin (manufactured by Nacalaitesque Inc.), 30 μl of soybean oil J. P. (manufactured by Yoshida Seiyaku), 470 μl of distilled water for injection (manufacturedby Otsuka Seiyaku) and 125 μg of a compound of the invention was ultrasonicated (an output of 90 watts) for 10 min. to prepare an oily emulsion. The oily emulsion was further passed through a polycarbonate membrane filter having 0.2 μm average pore diameter (manufactured by Millipore) to provide an average particle size of 0.2 μm.
Vascular endothelial cells of the normal human umbilical cord grown to confluence were stimulated in 24-well plates with 200 U/ml of rhIL1β at 37° C. for 4 hours. After removal of the supernatant by suction, oily emulsions each prepared from a compound of the invention in an amount of 20 μg/ml equivalent were added except for the rhIL1β-untreated group (sample 1) and the treated groups (samples 2 and 3). The mixtures were then allowed to react at room temperature for 30 min. Subsequently, promyelocytic leukemia cell line HL-60 with 2',7'-bis(carboxyethyl)-5,6-carboxyfluorescene acetoxymethyl ester fluorescent dye enclosed was added at a level of 1×10^6 cells per well followed by centrifugal operation at 100 rpm for 20 min. Each well was washed three times followed by addition of 0.5 ml of 0.5% Triton X-100 and stirring. The contents were divided into 100 μl portions in 96-well plates and measurement was made on a Baxter fluorometer at 485 nm/535 nm.
4: rhIL1β-treated group+2→3 sialyl Lewis X (natural type)-containing oily emulsion dispersion-treated group
5: rhlL1β-treated group+compound 5E-containing oily emulsion dispersion-treated group (OEG)
(§2) 6: rhIL1β-treated group+compound 5A-containing oily emulsion dispersion-treated group (2EG)
(§3) 7: rhIL1β-treated group+compound 5B-containing oily emulsion dispersion-treated group (3EG)
(§4) 8: rhIL1β-treated group+compound 5C-containing oily emulsion dispersion-treated group (4EG)
(§5) 9: rhIL1β-treated group+compound 5D-containing oily emulsion dispersion-treated group (5EG)
% inhibition of adhesion=100-[(fluorescence intensity for rhIL1β-treated group+compound-free or a compound-containing oily emulsion dispersion-treated group)-(fluorescence intensity for rhIL1β-untreated group)/(fluorescence intensity for rhIL1β-treated group-fluorescence intensity for rhIL1β-untreatedgroup)]×100

Assay [3] relates to human normal lymphocytes adhering to vascular endothelial cells of the normal human umbilical cord. Put plainly: inhibition of adhesion of human normal lymphocytes to rhIL1β-stimulated vascular endothelial cells, oily emulsion. To be noted: 20 μg/ml equivalent; for Amount adhered (fluorescence intensity): rhIL1β 200 U/ml, 485 nm/535 nm. As to the method:
as §1
Vascular endothelial cells of the normal human umbilical cord grown to confluence were stimulated in 24-well plates with 200 U/ml of rhIL1ββat 37° C. for 4 hours. After removal of the supernatant by suction, oily emulsions each prepared from a compound of the invention in an amount of 20 μg/ml equivalent were added except for the rhIL1β-untreated (Sample 1) and treated groups (Samples 2 and 3). The mixtures were then allowed to react at room temperature for 30 min. Subsequently, human normal lymphocytes with 2',7'-bis(carboxyethyl)-5,6-carboxyfluorescence acetoxymethyl ester fluorescent dye enclosed was added at a level of 2×10^6 cells per well followed by centrifugal operation at 100 rpm for 20 min. Each well was washed three times followed by addition of 0.5 ml of 0.5% Triton X-100 and stirring. The contents were divided into 100 μl portions in 96-well plates and measurement was made on a Baxter fluorometer at 485 nm/535 nm.
4: rhIL1β-treated group+2→3 sialyl Lewis X-containing oily emulsion dispersion-treated group
5: rhIL1β-treated group+compound 5E-containing oily emulsion dispersion-treated group (OEG)
as §2, §3, §4, §5
Amount adhered and percent inhibition of adhesion of human normal lymphocytes as measured from fluorescence intensity are shown in Table 5 below.

In the case of `CCCCCCCCCCCCCCC(CCCCCCCCCCCCCC)C(=O)Nc1ccc(CO[C@@H]2O[C@H](CO)[C@@H](O[C@@H]3O[C@H](CO)[C@H](O)[C@H](O[C@]4(C(=O)O)C[C@H](O)[C@@H](NC(C)=O)[C@H]([C@H](O)[C@H](O)CO)O4)[C@H]3O)[C@H](O[C@@H]3O[C@@H](C)[C@@H](O)[C@@H](O)[C@@H]3O)[C@H]2O)cc1` [Compound 5E, para-(2-tetradecylhexadecanoyl)-aminobenzyl-O-(5-acetamido-3,5-dideoxy-D-glycero-α-D-galacto-2-nonulopyranosylonic acid)-(2→3)-O-β-galactopyranosyl-(1→4)-[O-α-L-fucopyranosyl-(1→3)-β-D-glucopyranoside], reference compound], in assay [1], the “Amount of Colo 201 cells adhered (fluorescence intensity)” value came out at 595253. The “% Inhibition of adhesion” value is 9.68% in assay [1] (Colo 201 cells), 35.6% in assay [2] (HL-60 cells) and 46.6% in assay [3]. In assay [2], the “Amount of HL-60 cancer cells adhered (fluorescence intensity)” value was found to be 24307. Further, the “Amount adhered (fluorescence intensity)” value in assay [3] amounted to 14781.
`CCCCCCCCCCCCC/C=C/[C@@H](O)[C@H](CO[C@@H]1O[C@H](CO)[C@@H](O[C@@H]2O[C@H](CO)[C@H](O)[C@H](O[C@@H]3O[C@H](CO)[C@@H](O[C@@H]4O[C@H](CO)[C@H](O)[C@H](O[C@]5(C(=O)O)C[C@H](O)[C@@H](NC(C)=O)[C@H]([C@H](O)[C@H](O)CO)O5)[C@H]4O)[C@H](O[C@@H]4O[C@@H](C)[C@@H](O)[C@@H](O)[C@@H]4O)[C@H]3NC(C)=O)[C@H]2O)[C@H](O)[C@H]1O)NC(=O)CCCCCCCCCCCCCCCCC` [2→3 sialyl Le^x, reference compound]: in assay [1], the “Amount of Colo 201 cells adhered (fluorescence intensity)” value stood at 448512. For the same molecule, the “Amount of HL-60 cancer cells adhered (fluorescence intensity)” value in assay [2] came out at 16869. In addition, in assay [3], the “Amount adhered (fluorescence intensity)” value was determined as 9320.
